Data reported in patent US20100003301A1, “Bone Defect Filler, Release-Controlled Carrier, And Their Production Methods” (The University of Tokyo, priority 2006, published 2010).

Experiment: Viscosity measurement of blocking agents (LVDV digital viscometer)
Assay type: physicochemical
Details: viscosity could not be measured
Method: A Z printer 406 made by Z corporation was used to produce a bone filling material. “LVDV” which is a digital viscometer made by Brookfield Co., Ltd. was used to measure viscosity. A UL (ultra low viscosity) adapter was used when the viscosity was measured. Bending strength was measured by a rheometer made by Sun Science Co., Ltd.
Viscosity of blocking agents were measured by “LVDV” which is a digital viscometer made by Brookfield Co., Ltd. The results are shown in Table 2.

For `NC(=O)CC[C@H](N)C(=O)O` [L-glutamine], the dissolution in water was “cannot be dissolved in water”.
